Measured values: ChEMBL document CHEMBL5634071, “Fluorine in anti-HIV drugs approved by FDA from 1981 to 2023” (Eur J Med Chem, 2023)
pIC50: −log10 of the molar value.

What was measured:
[1] = Cytotoxicity against human CEM cells measured after 6 days; conditions: CEM cells (CCRF-CEM)
[2] = system: Human immunodeficiency virus 1; test: Antiviral activity against HIV-1 LAV infected in human CEM cells; format: functional, organism-based; conditions: Human immunodeficiency virus 1, LAV, CCRF-CEM
[3] = system: Human immunodeficiency virus; test: Antiviral activity agaisnt HIV BAL infected in human PM1 cells assessed as inhibition of viral replication; format: functional, organism-based; conditions: Human immunodeficiency virus 1, BAL
[4] = system: Human immunodeficiency virus 1; test: Antiviral activity against HIV-1 RF infected in human MT4 cells assessed as reduction in viral RNA production measured after 3 days by plaque assay; format: functional; conditions: Human immunodeficiency virus 1, RF, MT4, 72 h; time 3 day
[5] = system: Human immunodeficiency virus 1; test: Antiviral activity against HIV-1 infected in PBMC (unknown origin) assessed as inhibition of viral replication by ELISA; format: functional, organism-based; conditions: Human immunodeficiency virus 1, PBMC
[6] = target: C-C chemokine receptor type 5 (Homo sapiens, UniProt P51681); test: Displacement of [125I]MIP-1alpha from CCR5 receptor (unknown origin) expressed in HEK293 cells; format: cell-based
[7] = Cytotoxicity against human CEM cells; format: toxicity, cell-based; conditions: CEM cells (CCRF-CEM)

Chain of C-C chemokine receptor type 5 (P51681 whole entry): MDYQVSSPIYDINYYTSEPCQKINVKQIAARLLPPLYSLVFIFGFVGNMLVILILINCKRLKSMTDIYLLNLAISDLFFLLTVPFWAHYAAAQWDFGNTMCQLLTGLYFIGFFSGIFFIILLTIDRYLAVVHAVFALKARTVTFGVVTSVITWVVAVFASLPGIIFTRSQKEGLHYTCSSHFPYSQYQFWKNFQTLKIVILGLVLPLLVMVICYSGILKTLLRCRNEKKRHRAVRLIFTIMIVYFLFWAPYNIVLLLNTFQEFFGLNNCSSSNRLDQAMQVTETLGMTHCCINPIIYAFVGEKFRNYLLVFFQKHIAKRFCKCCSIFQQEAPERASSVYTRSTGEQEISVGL

For `Nc1nc(=O)n([C@H]2CS[C@@H](CO)O2)cc1F`, the CC50 at 144 h [1] was over 100 µM and the pIC50 [2] was 5.85.

In the case of `Cc1nnc(C(C)C)n1C1CC2CCC(C1)N2CC[C@H](NC(=O)C1CCC1)c1ccccc1` (some centres undefined), the IC90 [3] was 0.008 µM.

`Nc1nc(=O)n(C2CSC(CO)O2)cc1F` (racemic) [EMTRICITABINE, (+/-)-] gave a CC50 at 144 h [1] of over 100 µM and a pIC50 [2] of 7.10.

For `O=C1Nc2ccc(Cl)cc2[C@@](/C=C/C2CC2)(C(F)(F)F)N1`, the IC90 [4] was 0.0021 µM.

Work on `Cc1nnc(C(C)C)n1C1CC2CCC(C1)N2CC[C@H](NC(=O)C1CCCC1)c1ccccc1` (some centres undefined) yielded an IC90 [3] of 0.0016 µM.

Molecule `Cc1cn([C@H]2C[C@H](N=[N+]=[N-])[C@@H](CO)O2)c(=O)[nH]c1=O` [ZIDOVUDINE] has a pIC50 [5] of 7.26.

In the case of `Cc1nc2ccccc2n1C1CCN(CC[C@H](NC(=O)C2CCC2)c2ccccc2)CC1`, the pIC50 [3] was 7.14.

`Cc1nc2ccccc2n1C1CCN(CC[C@@H](NC(=O)c2ccccc2)c2ccccc2)CC1` showed a pIC50 [6] of 6.24.

`Cc1nnc(C(C)C)n1C1CC2CCC(C1)N2CC[C@H](NC(=O)CCC(F)(F)F)c1ccccc1` (some centres undefined) gave an IC90 [3] of 0.014 µM.

For `Cc1nc2ccccc2n1C1CCN(CC[C@H](NC(=O)c2ccccc2)c2ccccc2)CC1`, the pIC50 [6] was 7.89.

For `Cc1nc2ccccc2n1C1CCN(CCC(NC(=O)c2ccccc2)c2ccccc2)CC1` (centres undefined), the pIC50 [6] was 7.35 and the pIC50 [3] was 6.68.

With `Nc1ccn([C@H]2CSC(CO)O2)c(=O)n1` (mixture of isomers) the CC50 [7] was 52.6 µM and the pIC50 [2] was 7.15.

`Nc1ccn([C@H]2CS[C@@H](CO)O2)c(=O)n1` gave a CC50 [7] of 2.7 µM and a pIC50 [2] of 7.00.

`O=C1Nc2ccc(Cl)cc2[C@@](C#CC2CC2)(C(F)(F)F)N1` showed an IC90 [4] of 0.002 µM.

Molecule `Nc1ccn([C@@H]2CS[C@H](CO)O2)c(=O)n1` [LAMIVUDINE] has a CC50 [7] of over 100 µM and a pIC50 [2] of 7.15.

Molecule `O=c1[nH]cnc2c1ncn2[C@H]1CC[C@@H](CO)O1` [DIDANOSINE] has a pIC50 [5] of 6.12.

Work on `Cc1nnc(C(C)C)n1[C@H]1C[C@H]2CC[C@@H](C1)N2CC[C@H](NC(=O)C1CCC(F)(F)CC1)c1ccccc1` [MARAVIROC] yielded an IC90 [3] of 0.001 µM.

Work on `Nc1ccn([C@H]2CC[C@@H](CO)O2)c(=O)n1` [ZALCITABINE] yielded a pIC50 [5] of 7.96.
